In paper PMC6985185 (Breast cancer research and treatment, 2019):

Assays:
uterus = assay: Uterine wet weight in LTED tumor bearing mice; format: in vivo, Nu:J mice; settings: ovariectomized LTED tumor bearing mice, after 4 weeks of treatment at the LTED study doses
TamR xenograft tumors = assay: TamR Study 2: growth of tamoxifen-resistant xenograft tumors under oral SERDs

For `C[C@@H]1Cc2c([nH]c3ccccc23)[C@@H](c2c(F)cc(/C=C/C(=O)O)cc2F)N1CC(C)(C)F` [AZD9496], the “Uterine wet weight (measure of uterine stimulation)” value (“Uterine wet weight” for short) (uterus) was “significantly increased uterine weight”, the “% tumor growth inhibition of TamR tumors” value (TamR xenograft tumors; AZD9496 10 mg/kg po qd, day 0 of treatment) was −3% and the “% tumor growth inhibition of TamR tumors” value (TamR xenograft tumors; AZD9496 10 mg/kg po qd, day 2 of treatment) was 13%. The “% tumor growth inhibition of TamR tumors” value (TamR xenograft tumors; AZD9496 10 mg/kg po qd, day 4 of treatment) was 18%, the “% tumor growth inhibition of TamR tumors” value (TamR xenograft tumors; AZD9496 10 mg/kg po qd, day 7 of treatment) was 27% and the “% tumor growth inhibition of TamR tumors” value (TamR xenograft tumors; AZD9496 10 mg/kg po qd, day 9 of treatment) was 24%. For the same compound, the “% tumor growth inhibition of TamR tumors” value (TamR xenograft tumors; AZD9496 10 mg/kg po qd, day 11 of treatment) was 30%, the “% tumor growth inhibition of TamR tumors” value (TamR xenograft tumors; AZD9496 10 mg/kg po qd, day 14 of treatment) was 31% and the “% tumor growth inhibition of TamR tumors” value (TamR xenograft tumors; AZD9496 10 mg/kg po qd, day 16 of treatment) was 32%. For the same compound, the “% tumor growth inhibition of TamR tumors” value (TamR xenograft tumors; AZD9496 10 mg/kg po qd, day 18 of treatment) was 36%, the “% tumor growth inhibition of TamR tumors” value (TamR xenograft tumors; AZD9496 10 mg/kg po qd, day 21 of treatment) was 43% and the “% tumor growth inhibition of TamR tumors” value (TamR xenograft tumors; AZD9496 10 mg/kg po qd, day 23 of treatment) was 47%. The “% tumor growth inhibition of TamR tumors” value (TamR xenograft tumors; AZD9496 10 mg/kg po qd, day 25 of treatment) was 46% and the “% tumor growth inhibition of TamR tumors” value (TamR xenograft tumors; AZD9496 10 mg/kg po qd, day 28 of treatment) was 43%.

`CC/C(=C(/c1ccc(/C=C/C(=O)O)cc1)c1ccc2[nH]ncc2c1)c1ccc(F)cc1Cl` [GDC0810] was tested, and the “Uterine wet weight” value (uterus) was “significantly increased uterine weight”, the “% tumor growth inhibition of TamR tumors” value (TamR xenograft tumors; GDC0810 25 mg/kg po qd, day 0 of treatment) was −5% and the “% tumor growth inhibition of TamR tumors” value (TamR xenograft tumors; GDC0810 25 mg/kg po qd, day 2 of treatment) was 11%. For the same compound, the “% tumor growth inhibition of TamR tumors” value (TamR xenograft tumors; GDC0810 25 mg/kg po qd, day 4 of treatment) was 22%, the “% tumor growth inhibition of TamR tumors” value (TamR xenograft tumors; GDC0810 25 mg/kg po qd, day 7 of treatment) was 28% and the “% tumor growth inhibition of TamR tumors” value (TamR xenograft tumors; GDC0810 25 mg/kg po qd, day 9 of treatment) was 27%. The “% tumor growth inhibition of TamR tumors” value (TamR xenograft tumors; GDC0810 25 mg/kg po qd, day 11 of treatment) was 35%, the “% tumor growth inhibition of TamR tumors” value (TamR xenograft tumors; GDC0810 25 mg/kg po qd, day 14 of treatment) was 32% and the “% tumor growth inhibition of TamR tumors” value (TamR xenograft tumors; GDC0810 25 mg/kg po qd, day 16 of treatment) was 42%. The “% tumor growth inhibition of TamR tumors” value (TamR xenograft tumors; GDC0810 25 mg/kg po qd, day 18 of treatment) was 51%, the “% tumor growth inhibition of TamR tumors” value (TamR xenograft tumors; GDC0810 25 mg/kg po qd, day 21 of treatment) was 49% and the “% tumor growth inhibition of TamR tumors” value (TamR xenograft tumors; GDC0810 25 mg/kg po qd, day 23 of treatment) was 53%. The “% tumor growth inhibition of TamR tumors” value (TamR xenograft tumors; GDC0810 25 mg/kg po qd, day 25 of treatment) was 53% and the “% tumor growth inhibition of TamR tumors” value (TamR xenograft tumors; GDC0810 25 mg/kg po qd, day 28 of treatment) was 52%.

With `N#Cc1ccc(C(c2ccc(C#N)cc2)n2cncn2)cc1` [Letrozole, letrozole] the “Uterine wet weight” value (uterus) was “no response of uterine weight”.
